Results taken from ChEMBL document CHEMBL3430912, “GSK Tres Cantos Anti-Kinetoplastid Screening (TCAKS) Data”.

What was measured:
Leishmania donovani [1] = experiment: GSK_TCAKS: pIC50 Leishmania donovani Imaging: THP-1 Host Macrophages. Assay plates (384-well) were prepared by adding 250nL of compound to each well. For single shot assay, the final compound concentration was 5 uM. […] Automated image analysis was performed with a script developed on Acapella High Content Imaging and Analysis Software (PerkinElmer). Output: THP-1 cell count were reported for each well.; format: functional, organism-based, Homo sapiens
[2] = molecular target: Sterol 14-alpha demethylase (Trypanosoma cruzi (strain CL Brener), UniProt Q7Z1V1); experiment: GSK_TCAKS: pIC50 CYP51 from Trypanosoma cruzi.; format: functional
Chain of Sterol 14-alpha demethylase (Q7Z1V1 whole entry): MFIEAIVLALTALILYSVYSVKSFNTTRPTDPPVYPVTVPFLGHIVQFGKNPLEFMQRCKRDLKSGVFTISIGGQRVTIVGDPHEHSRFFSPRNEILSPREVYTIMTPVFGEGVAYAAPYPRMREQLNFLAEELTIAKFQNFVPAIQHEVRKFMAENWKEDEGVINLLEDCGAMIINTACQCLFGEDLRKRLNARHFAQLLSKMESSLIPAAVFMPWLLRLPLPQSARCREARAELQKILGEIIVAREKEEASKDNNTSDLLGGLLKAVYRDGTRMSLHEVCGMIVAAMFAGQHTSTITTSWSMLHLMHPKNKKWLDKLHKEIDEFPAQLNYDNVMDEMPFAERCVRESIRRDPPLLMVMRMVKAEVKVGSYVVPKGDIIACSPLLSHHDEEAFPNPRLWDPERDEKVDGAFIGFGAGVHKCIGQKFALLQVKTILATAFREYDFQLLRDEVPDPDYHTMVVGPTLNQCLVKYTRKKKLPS

Trypanosoma cruzi [3] = experiment: (§1) GSK_TCAKS: pIC50 H2C9 Imaging: H9c2 Host Cardiomyocytes. […] Cells were then washed once with PBS before infection. T. cruzi trypomastigotes, collected at days 5 to 8 after infection from LLC-MK2 parasite infected cultures, were allowed to swim out for 4h at 37C from a centrifuged pellet (2,500 rpm/10 min/room temperature). Trypomastigotes were then collected and counted in a CASY Cell Counter. Trypomastigotes, in supplemented DMEM, were added to H9c2 cultures in a multiplicity of infection of 1 and incubated for 18 h. Cells were washed once with PBS before incubation of the infected H9c2 monolayer with trypsin (Life-Technologies) to detach cells from the flask. Cells were counted in a CASY Cell Counter using a 150 um capillary and their density set at 5 * 10^4 cells per mL in supplemented assay DMEM. Infected H9c2 were dispensed into 384-well poly-lysine coated assay plates at 50uL per well using a Multidrop Combi dispenser. After seeding them, the plates were incubated at 37C, 5% CO2 for 72h. Cultures were then fixed and stained by addition of 50 uL of a solution containing 8% formaldehyde and 4 uM DRAQ5 DNA dye (BioStatus, UK) per well. […] Five images were collected per well for reliable statistical analysis. Automated image analysis was performed with a script developed on Acapella High Content Imaging and Analysis Software (PerkinElmer). Output: Number of H9c2 Host Cardiomyocytes nuclei to determine drug-related cytotoxicity.; format: functional, organism-based, Rattus norvegicus; conditions: H9c2, 4 h
Trypanosoma cruzi [4] = experiment: as §1, with “Trypanosoma cruzi” for “H2C9”, “Infected Cells.” for “H9c2 Host Cardiomyocytes.”, “percentage” for “Number”, “infected cells per well as a second infection marker.” for “H9c2 Host Cardiomyocytes nuclei to determine drug-related cytotoxicity.”; format: functional, organism-based, Rattus norvegicus; conditions: H9c2, 4 h
Trypanosoma cruzi [5] = experiment: GSK_TCAKS: pIC50 Trypanosoma cruzi viability assay using beta-GAL activity. This assay was run at single shot at 5uM compound concentration per well. The biological reagents consisted of NIH-3T3 host cells and trypomastigotes parasitic cells; both cell types were set to a 3.3 * 10^5 cells/mL dilution in assay DMEM by means of a CASY cell counter device using a 60um capillary. 6 uL of the mixture were dispensed per well (about 1 * 10^3 host-cells and 1 * 10^3 parasites) with a Multidrop Combi dispenser. […] In all wells, the percentage of DMSO never exceeded 0.5%. Plates incubated for four days at 37C, 5% CO2. The substrate used for the assay fluorescence intensity (FLINT) readout was resorufin-beta-D-galactopiranoside (Sigma-Aldrich) at 5uM per well. It was diluted in PBS supplemented with the soft detergent Igepal (Fluka).; format: functional, organism-based, Mus musculus; conditions: Tulahuen, NIH3T3
Leishmania donovani [6] = experiment: GSK_TCAKS: pIC50 Leishmania donovani Imaging: Amastigotes/Macrophages. Assay plates (384-well) were prepared by adding 250nL of compound to each well. For single shot assay, the final compound concentration was 5 uM. […] Automated image analysis was performed with a script developed on Acapella High Content Imaging and Analysis Software (PerkinElmer). Output: Average number of amastigotes per macrophage cell were reported for each well.; format: functional, organism-based, Homo sapiens; conditions: THP-1
[7] = system: Trypanosoma brucei brucei; experiment: GSK_TCAKS: pIC50 Trypanosoma brucei viability assay using luminiscence. Assay plates (1536-well) were prepared. T. brucei cultures were harvested and counted in a CASY cell counter. A parasite suspension was prepared at a final concentration of 5 * 10^4 cells/mL in complete HMI9 medium and 6uL was dispensed to all wells containing compounds using a Multidrop Combi dispenser. 6uL of HMI9 media with 0.4% DMSO were dispensed to control columns. Plates were incubated for 24 h at 37C, 5% CO2 then tempered for 10 min at room temperature. ATP content was quantified by adding 4 uL of CellTiter-Glo Reagent (Promega) according to the manufacturer's instructions. Luminescence was measured using a ViewLux.; format: functional, organism-based; conditions: Lister 427, CASY
Leishmania donovani [8] = experiment: GSK_TCAKS: pIC50 Leishmania donovani Imaging: Infected Macrophages. Assay plates (384-well) were prepared by adding 250nL of compound to each well. For single shot assay, the final compound concentration was 5 uM. […] Automated image analysis was performed with a script developed on Acapella High Content Imaging and Analysis Software (PerkinElmer). Output: Percent of infected macrophage cells were reported for each well.; format: functional, organism-based, Homo sapiens; conditions: THP-1
Trypanosoma cruzi [9] = experiment: as §1, with “Trypanosoma cruzi” for “H2C9”, “Amastigotes/Cell.” for “H9c2 Host Cardiomyocytes.”, “number” for “Number”, “amastigotes per cell as infection level measurement.” for “H9c2 Host Cardiomyocytes nuclei to determine drug-related cytotoxicity.”; format: functional, organism-based, Rattus norvegicus; conditions: H9c2, 4 h
NIH3T3 = experiment: GSK_TCAKS: pIC50 NIH 3T3 cell line viability assay using luminiscence. Tissue culture surface treated assay plates (1536-well) were used. […] The 100% cells survival control was determined exposing the host-cells to a 0.5% DMSO concentration, whereas the 100% toxicity control was achieved by seeding the cells in presence of Amphotericin B at 50uM. Plates were incubated for four days at 37C, 5% CO2. The assay readout was developed by addition of 5uL of CellTiter-Glo Reagent following the manufacturer's instructions. Luminiscence was measured using a ViewLux.; format: functional, cell-based; conditions: Mus musculus, NIH3T3, 96 h
Leishmania donovani [10] = experiment: GSK_TCAKS: pIC50 Leishmania donovani viability assay using fluorescence intensity. Assay plates (1536-well) were prepared by adding 30nL per well of compound. For single shot assay, the final compound concentration was 5uM. […] Briefly, eGFP LdBOB axenic amastigotes were harvested, fixed and counted in a CASY cell counter (Roche-Applied Science). A final concentration of 1.5 * 10^5 cells per well were prepared in amastigote media containing 500 U/mL penicillin/streptomycin (Invitrogen) and 6uL was dispensed to each experimental well using a Multidrop Combi dispenser (Thermo Scientific). 6uL of assay media was dispensed to control columns used as reference for 100% compound response. Following incubation for 72 h at 37C, 5% CO2, 2 uL of resazurin was added to each well at a final concentration of 0.5 mM in phosphate buffered saline (PBS) with IGEPAL (Sigma-Aldrich), 0.05% (v/v).; format: functional, organism-based
[11] = system: Trypanosoma brucei brucei; experiment: GSK_TCAKS: pIC50 Trypanosoma brucei viability assay using fluorescence intensity. Assay plates (1536-well) were prepared by dispensing 25nL of compound solution per well using an Echo acoustic dispenser (Labcyte).; format: functional, organism-based; conditions: Lister 427, 2 h
[12] = GSK_TCAKS: pIC50 HepG2 human cell line viability assay using luminiscence. […] Seeding density was checked to ensure that new mono-layers were not more than 50% confluent at the time of harvesting. Cell suspension was added to 500 mL of the same medium at a final density of 1.2 * 10^5 cells/mL. This cell suspension was dispensed (25 uL, 3000 cells per well) into 384-well clear-bottom plates using a Multidrop Combi dispenser. Prior to addition of the cell suspension, the screening compounds (250 nL) were pre-dispensed into the plates with an Echo liquid handler. Plates were incubated for 48 h at 37C, 5% CO2. After incubation, plates equilibrated at room temperature for 30 min before proceeding to develop the luminescent signal. The signal developer, CellTiter-Glo Reagent, was allowed to equilibrate at room temperature for 30 min and added to the plates (25uL per well) using a Multidrop Combi dispenser. Plates were left for 10 min at room temperature for stabilization and then read using a ViewLux.; format: toxicity, cell-based

SMILES	IC50 (Leishmania donovani [1])	IC50 [2]	IC50 (Trypanosoma cruzi [3])	IC50 (Trypanosoma cruzi [4])	IC50 (Trypanosoma cruzi [5])	IC50 (Leishmania donovani [6])	IC50 [7]	IC50 (Leishmania donovani [8])	IC50 (Trypanosoma cruzi [9])	IC50 (NIH3T3)	IC50 (Leishmania donovani [10])	IC50 [11]	IC50 at 48 h [12]
CCN(Cc1ccncc1)Cc1ccc(NC(=O)c2cc(-c3ccc(F)cc3)n[nH]2)cc1	5.01 µM	0.0794 µM	> 50.1 µM	0.251 µM	0.398 µM	2.51 µM	> 39.8 µM	> 50.1 µM	0.251 µM	10 µM	15.8 µM	> 39.8 µM	> 100 µM
O=c1ccn(-c2ccc([N+](=O)[O-])cc2Cl)c2ccc(F)cc12	> 50.1 µM	15.8 µM	> 50.1 µM	3.98 µM	1.58 µM	> 50.1 µM	> 39.8 µM	> 50.1 µM	1.26 µM	> 50.1 µM	> 50.1 µM	25.1 µM	> 100 µM
CCN(CC)S(=O)(=O)c1ccc(C(=O)Nc2cc(C)nn2-c2nc(C)c(C)c(=O)[nH]2)cc1	3.16 µM	> 100 µM	> 50.1 µM	1.58 µM	0.631 µM	> 50.1 µM	0.316 µM	> 50.1 µM	0.316 µM	> 50.1 µM	0.501 µM	0.316 µM	> 100 µM
CC(C(=O)Nc1ccc(Br)cc1)N1CCN(c2ccc([N+](=O)[O-])cc2)CC1 (stereo not given)	> 50.1 µM	39.8 µM	> 50.1 µM	2.51 µM	2.51 µM	> 50.1 µM	> 39.8 µM	> 50.1 µM	3.16 µM	> 50.1 µM	> 50.1 µM	> 39.8 µM	> 100 µM
O=S(=O)(c1ccccc1C(F)(F)F)N1CCN(Cc2ccc(-n3ccnc3)cc2)CC1	15.8 µM	0.1 µM	> 50.1 µM	0.251 µM	0.251 µM	25.1 µM	> 39.8 µM	> 50.1 µM	0.2 µM	> 50.1 µM	6.31 µM	> 39.8 µM	> 100 µM
O=C(Nc1nc(-c2ccc(S(=O)(=O)N3CCOCC3)cc2)cs1)c1ccc([N+](=O)[O-])cc1	3.98 µM	> 100 µM	> 50.1 µM	1.58 µM	1 µM	2.51 µM	10 µM	> 50.1 µM	0.501 µM	25.1 µM	> 50.1 µM	3.98 µM	> 100 µM
COc1ccc(C(C)(C)C)cc1S(=O)(=O)n1ccnc1	> 50.1 µM	0.00794 µM	> 50.1 µM	0.2 µM	0.141 µM	25.1 µM	> 39.8 µM	> 50.1 µM	0.2 µM	> 50.1 µM	39.8 µM	39.8 µM	> 100 µM
N#Cc1c(Oc2cccc(Cl)c2)cccc1[N+](=O)[O-]	> 50.1 µM	> 100 µM	15.8 µM	0.631 µM	0.316 µM	7.94 µM	0.00501 µM	10 µM	0.126 µM	20 µM	7.94 µM	0.00794 µM	25.1 µM
CN(C)Cc1ccc(-c2ccc(S(=O)(=O)NCC3CCCO3)c(F)c2)cc1 (stereo not given)	> 63.1 µM	39.8 µM	> 63.1 µM	5.01 µM	1.26 µM	> 63.1 µM	39.8 µM	> 63.1 µM	2 µM	15.8 µM	> 63.1 µM	25.1 µM	> 126 µM
COc1ccc(-c2cc(C)no2)cc1S(=O)(=O)Nc1ccc(F)c(Cl)c1	31.6 µM	> 100 µM	50.1 µM	3.16 µM	1.58 µM	20 µM	25.1 µM	25.1 µM	3.98 µM	25.1 µM	25.1 µM	15.8 µM	79.4 µM
